{
  "source": "patent US20090264382A1",
  "about": "“Methods for Treating Hematopoietic Neoplasms” (priority 2007, published 2009)",
  "key": {"[1]": {"tested_on": "AML cells / panel of leukemic cell lines", "assay": "Leukemic cell proliferation, viable cell count by trypan blue exclusion", "type": "cell-based, human", "conditions": "48 hours", "procedure": "Leukemic cells were seeded at 1×10^5 cells/ml in X-vivo medium (Bio-Whittaker, MA) with 5% FBS and CA4P or pre-incubated with the PARP-inhibitor DPQ or caspase-inhibitors Z-VAD-fmk and Q-VD-OPh (R&D, Minneapolis, Minn.). A panel of leukemic cells was incubated with CA4P at the different concentrations indicated in FIG. 1, and viable cells were counted after 48 hours using trypan blue exclusion. Results of four experiments in duplicate are expressed as the ratio of the percentage of viable cells/control±SEM (*p<0.05 as compared with CA4P-untreated cells; n=4). After incubation for 48 hours, cells were counted using trypan-blue exclusion. CA4P at concentrations as low as 1 nM initiated cell death of non-adherent, anchorage-independent AML cells in vitro, with the IC50 ranging from 2.5 to 5 nM (FIG. 1). The majority of the AML cell lines tested was sensitive to CA4P at a concentration of 2.5 nM or less. All leukemic cell lines, as well as a recently established primary leukemic cell line (R81) 16 were sensitive at low doses of CA4P (<10 nM)."}, "VCAM-1": {"tested_on": "VCAM-1", "assay": "VCAM-1 immunofluorescence in subcutaneous HL60 AML tumors", "type": "in vivo, NOD-SCID mice", "conditions": "data not shown", "procedure": "CA4P may modulate leukemia-vascular interactions, thereby disrupting chemo-protected niches for leukemic cells. […] NOD-SCID mice with subcutaneous HL60 AML tumors were treated with CA4P or PBS (untreated control)."}, "[2]": {"tested_on": "HL60 and U937 AML cells on HUVECs", "assay": "Leukemic cell adhesion to and co-culture with HUVECs", "type": "cell-based, human", "procedure": "To assess leukemic cell adhesion, 1×10^5 GFP+HL60 or U937 cells in X-vivo/5% FBS were added per well. The percentage of GFP++adherent cells was quantified by fluorescent microscopy. To compare the resistance of vascular-adherent to non-adherent leukemic cells in co-culture, leukemic cells were seeded on either IL-1β-activated or non-activated HUVECs, with addition of CA4P. After 48 hours, GFP++leukemic cells were removed from the wells by trypsinization and quantified by fluorescence microscopy and flow cytometry. […] The number of adherent cells is expressed as a percentage of total leukemic cells and representative of three independent experiments performed in triplicate SEM (*p<0.05 as compared to CA4P-untreated control).\nSurvival of GFP+U937 (E) and HL60 (F) leukemic cells co-cultured with HUVECs is expressed as a percentage of total cells. Adherent (i.e. attached to IL-1β activated HUVECs) and non-adherent leukemic cells (i.e. cultured with non-activated HUVECs) are depicted. Results are representative of three independent experiments performed in triplicate±SEM (*p<0.05)."}, "GFP+HL60 cells": {"tested_on": "GFP+HL60 cells", "assay": "Systemic in vivo leukemia model, GFP+HL60", "design": "species or system NOD-SCID mice", "procedure": "NOD-SCID mice were intravenously inoculated with 1×10^7 GFP+HL60 cells. The HL60 cells were labeled with green fluorescent protein (GFP) by a lentiviral construct, and inoculated systemically through tail vein injection. Three days after inoculation, mice were divided into 2 groups of five mice. One group was treated every other day with PBS (control) and the second group received 25 mg/kg CA4P every other day. Each experiment was done three times. At day 30 after the start of the experiment, two mice from each group were killed, and their organs (spleen, liver and lung), peripheral blood and marrow of surgically removed femurs were collected, and analyzed for the presence of human leukemic cells by flow cytometry. Single cell suspension was stained using phytoerythrin-labeled anti-human CD45 mAb (Pharmingen), and the percentage of double positive human CD45-PE and GFP cells was determined flow cytometer. The extent of GFP+HL60 cell infiltration was assessed by fluorescence microscopy. In a second set of experiments, GFP+U937 cells were used instead of HL60 cells, and the animals sacrificed after 30 days.\nIn the untreated control group, the mice survived for 32-40 days only and succumbed to systemic spread of leukemia. […] This increase in survival was accompanied by a decrease in circulating leukemic cells observed 30 days after leukemic cell injection, as assessed by flow cytometry determination of double positive cells for human CD45 and GFP (0.9% for control vs. 0.2% for CA4P treatment, p<0.05, n=5) (FIG. 12). Thirty days after xenotransplantation of GFP+HL60 cell injection, the presence of GFP+HL60 cells in the peripheral blood and the different tissues of the mice was assessed by quantification of double positive GFP and human CD45 cells by flow cytometry. […] In contrast, control mice had massive leukemic infiltrates in the spleen (5.2%), liver (2.6%) and lung (3.5%) (FIG. 12)."}, "leukemic cells": {"tested_on": "leukemic cells", "assay": "Comet assay for DNA damage", "type": "cell-based, human", "conditions": "after CA4P treatment", "procedure": "DNA damage in CA4P-incubated leukemic cells was assessed by comet assay. The concept behind this assay is based upon the ability of denatured, cleaved DNA fragments to migrate out of the cell under the influence of an electric field, whereas undamaged DNA migrates more slowly and remains within the confines of the nucleus. Evaluation of the DNA “comet” tail shape and migration pattern allows for assessment of DNA damage. Results were expressed as the percentage of cells with a comet tail in 100 randomly selected, non-overlapping cells visualized by standard light microscopy. […] Results of three experiments in duplicate are expressed as the mean of the number of cells with a comet tail (%)±SEM (*p<0.05 as compared with CA4P-untreated cells; n=3)."}, "[3]": {"conditions": "day 30, 25 mg/kg every other day"}},
  "note": "pIC50: −log10 of the molar value.",
  "data": [
    {"smiles": "COc1ccc(/C=C\\c2cc(OC)c(OC)c(OC)c2)cc1OP(=O)(O)O", "note": "[CA4P, combretastatin A-4 phosphate]", "values": [
      {"measurement": "concentration at which all leukemic cell lines and primary line R81 were sensitive", "setting": "[1]", "result": "< 10", "unit": "nM"},
      {"measurement": "concentration at which the majority of the AML cell lines tested was sensitive", "setting": "[1]", "result": "≤ 2.5", "unit": "nM"},
      {"measurement": "lowest concentration that initiated cell death of AML cells", "setting": "[1]; in vitro", "result": 1, "unit": "nM"},
      {"measurement": "pIC50", "setting": "[1]; Homo sapiens, trypan blue exclusion, range over cell lines, read-out: IC50, cell death of non-adherent, anchorage-independent AML cells", "result": "8.30 to 8.60"},
      {"measurement": "VCAM-1 expression in tumors", "setting": "VCAM-1", "result": "significantly decreased VCAM-1 expression"},
      {"measurement": "attachment of HL60 and U937 AML cells to HUVECs", "setting": "[2]; in vitro", "result": "decreased attachment"},
      {"measurement": "sensitivity of leukemic cells to CA4P with decreased adhesion to HUVECs", "setting": "[2]; non-adherent vs adherent to IL-1β activated HUVECs, 48 hours", "result": "more sensitive"},
      {"measurement": "survival of intravenously xenotransplanted mice", "setting": "GFP+HL60 cells; 25 mg/kg every other day", "result": "significantly increased survival"},
      {"measurement": "circulating leukemic cells (human CD45 and GFP double positive) in peripheral blood", "setting": "GFP+HL60 cells; [3]", "result": 0.2, "unit": "%"},
      {"measurement": "engraftment of leukemic cells in the bone marrow", "setting": "GFP+HL60 cells; [3]", "result": "completely eradicated"},
      {"measurement": "human CD45 and GFP positive cells in the liver", "setting": "GFP+HL60 cells; [3]", "result": 0.1, "unit": "%"},
      {"measurement": "infiltration of GFP+HL60 cells in the lung", "setting": "GFP+HL60 cells; [3]", "result": "no evidence of infiltration"},
      {"measurement": "infiltration of GFP+HL60 cells in the spleen", "setting": "GFP+HL60 cells; [3]", "result": "no evidence of infiltration"},
      {"measurement": "number of leukemic cells displaying a comet tail", "setting": "leukemic cells", "result": "strongly increased"}
    ]}
  ]
}
